Values joined by “and” are separate entries in the source; they are usually repeats but may differ in a detail not shown here. Equal values may be shown once.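 Tested at 5 concentrations; 48 h exposure; 96-well plates; endpoints linearly interpolated, else capped at highest concentration. GI50 marks 50% less growth. Definition used: TGI = concentration required for complete inhibition of growth.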
Tests used:
Assay in all cases: DTP human tumour cell line panel, 48 h
SF-295 CNS = tested on: SF-295 CNS
MDA-MB-231 breast = tested on: MDA-MB-231 breast
COLO 205 colon = tested on: COLO 205 colon
SF-268 CNS = tested on: SF-268 CNS
KM12 colon = tested on: KM12 colon
OVCAR-8 ovarian = tested on: OVCAR-8 ovarian
HS 578T breast = tested on: HS 578T breast
UO-31 renal = tested on: UO-31 renal
SW-620 colon = tested on: SW-620 colon
SNB-75 CNS = tested on: SNB-75 CNS

| SMILES | TGI (SF-295 CNS) [µM] | TGI (MDA-MB-231 breast) [µM] | TGI (COLO 205 colon) | TGI (SF-268 CNS) [µM] | TGI (KM12 colon) | TGI (OVCAR-8 ovarian) | TGI (HS 578T breast) [µM] | TGI (UO-31 renal) | TGI (SW-620 colon) | TGI (SNB-75 CNS) [µM] | GI50 (MDA-MB-231 breast) [µM] | GI50 (KM12 colon) [µM] | GI50 (OVCAR-8 ovarian) [µM] | GI50 (SF-295 CNS) [µM] | GI50 (COLO 205 colon) [µM] | GI50 (SF-268 CNS) [µM] | GI50 (HS 578T breast) [µM] | GI50 (UO-31 renal) [µM] | GI50 (SW-620 colon) [µM] |
| --- | --- | --- | --- | --- | --- | --- | --- | --- | --- | --- | --- | --- | --- | --- | --- | --- | --- | --- | --- |
| O=P1(O)c2ccccc2CSCc2ccccc21 | > 100 | > 100 | > 100 µM | > 100 | > 100 µM | > 100 µM | > 100 | > 100 µM | > 100 µM | – | – | – | – | – | – | – | – | – | – |
| CCOc1ccc(N=C2NC(=O)C(CC(=O)Nc3ccc(Cl)cc3Cl)S2)cc1 (centres undefined) | > 100 | – | > 100 µM | > 100 | > 100 µM | > 100 µM | – | > 100 µM | > 100 µM | > 100 | – | – | – | – | – | – | – | – | – |
| Nc1cc2c(c3ccccc13)C(CCl)CN2C(=O)c1cc2cc(NC(=O)c3cc4ccccc4o3)ccc2[nH]1 (centres undefined) | – | > 1100 | – | – | 0.0235 µM and < 0.11 µM | 0.00407 µM and < 0.11 µM | – | – | – | – | > 0.11 | > 0.11 | > 0.11 | – | – | – | – | – | – |
| O=[N+]([O-])c1cccc(C=NC23CC4CC(CC(C4)C2)C3)c1 | > 100 | – | > 100 µM | > 100 | > 100 µM | > 100 µM | – | > 100 µM | > 100 µM | > 100 | – | – | – | – | – | – | – | – | – |
| CNC(=O)N(CCCC(NC(C)=O)C(=O)NCc1ccccc1)Cc1ccccc1 (centres undefined) | > 100 | – | > 100 µM | > 100 | > 100 µM | > 100 µM | – | > 100 µM | > 100 µM | > 100 | – | – | – | – | – | – | – | – | – |
| COC(=O)CCC(=O)C(CC(=O)OC)C(=O)CCC(=O)NCCc1ccccc1 (centres undefined) | > 100 | – | > 100 µM | > 100 | > 100 µM | > 100 µM | – | > 100 µM | > 100 µM | > 100 | – | – | – | – | – | – | – | – | – |
| c1ccc2c(CNCCCN3CCN(CCCNCc4cccc5ccccc45)CC3)cccc2c1 | 3.28 | – | 3.85 µM | 6.11 | 3.7 µM | 4.03 µM | – | 3.22 µM | 3.25 µM | 3.15 | – | – | – | – | – | – | – | – | – |
| Cc1ccc(NC(=O)CC2SC(=Nc3cccc(Cl)c3C)NC2=O)cc1 (centres undefined) | > 100 | – | > 100 µM | > 100 | > 100 µM | > 100 µM | – | 73.8 µM | > 100 µM | > 100 | – | – | – | – | – | – | – | – | – |
| N#CCC(=O)N/N=C(/C(=O)Nc1ccccc1)C1C(=O)N(c2ccccc2)N=C1N (centres undefined) | > 100 | – | > 100 µM | > 100 | > 100 µM | > 100 µM | – | > 100 µM | > 100 µM | > 100 | – | – | – | – | – | – | – | – | – |
| O=C(O)c1ccc(NCn2nc(-c3ccccc3O)oc2=S)cc1O | > 100 | > 100 | > 100 µM | > 100 | > 100 µM | > 100 µM | > 100 | > 100 µM | > 100 µM | – | 38.9 | > 100 | > 100 | > 100 | 42.6 | > 100 | > 100 | > 100 | 41.9 |
| CN(CC(=O)O)S(=O)(=O)c1ccc(Cl)cc1 | > 100 | – | > 100 µM | > 100 | > 100 µM | > 100 µM | – | > 100 µM | > 100 µM | > 100 | – | – | – | – | – | – | – | – | – |
| Cc1ccc(S(=O)OC2c3ccccc3Cc3ccccc32)cc1 (centres undefined) | 62.6 | – | 31.5 µM | 47.1 | 39.2 µM | 28.9 µM | – | 45.7 µM | 59.6 µM | 34.6 | – | – | – | – | – | – | – | – | – |
| Cc1cc2c(=O)cc(-c3ccc(O)cc3)oc2c(C(=O)O)c1C | > 100 | – | > 100 µM | – | > 100 µM | > 100 µM | – | > 100 µM | > 100 µM | > 100 | – | – | – | – | – | – | – | – | – |
| CC(=O)OC1C(COC(N)=O)OC(n2c(-c3ccc(C)cc3)cc(-c3ccccc3)c(C#N)c2=O)C(OC(C)=O)C1OC(C)=O (centres undefined) | > 100 | – | > 100 µM | > 100 | > 100 µM | > 100 µM | – | > 100 µM | > 100 µM | > 100 | – | – | – | – | – | – | – | – | – |
| S=C1NC(c2ccccc2)=NC(Cc2ccccc2)(c2ccccc2)N1c1ccccc1 (centres undefined) | > 100 | – | > 100 µM | > 100 | > 100 µM | > 100 µM | – | > 100 µM | > 100 µM | 57.1 | – | – | – | – | – | – | – | – | – |
| CCOC(=O)c1sc(Nc2cc(Cl)ccc2Cl)nc1C | > 100 | – | > 100 µM | > 100 | > 100 µM | > 100 µM | – | > 100 µM | > 100 µM | > 100 | – | – | – | – | – | – | – | – | – |
| N#CC1(C#N)C2C=CC(C3CC=CC32)C1(C#N)C#N (centres undefined) | > 50 | 17.2 | 4.3 µM and 13.5 µM | 22.6 | – | – | > 50 | 3.67 µM and 1.85 µM | 5.03 µM and 22.6 µM | – | – | – | – | – | 5.5 | – | – | 1.07 | 2.64 |
| OCC(O)COc1ccc(F)cc1 (centres undefined) | > 100 | – | > 100 µM | > 100 | > 100 µM | > 100 µM | – | > 100 µM | > 100 µM | > 100 | – | – | – | – | – | – | – | – | – |
